Columns and labels:
Assay type in all cases: cell-based, human
hCMPCs = experiment: Differentiation of hCMPCs into cardiomyocytes (5-azacytidine, ascorbic acid, TGFβ); RT-PCR, Western blot, α-actinin immunofluorescence
Method: For a cell type to be suitable for cardiomyocyte replacement therapies, it should not only be able to proliferate but also differentiate efficiently into cardiomyocytes. To study the capacity of the hCMPCs of the invention to differentiate into cardiomyocytes, cells were plated at 10^5 per cm^2 in differentiation medium containing ascorbic acid and treated with 5-azacytidine (which is a demethylating agent).
(§1) To determine whether CMPCs of the invention were capable of responding to TGFβ ligand we examined their ability to phosphorylate smad proteins. TGFβ exerts its effect by binding to a complex of type I and type II receptor and phosphorylating Smads^30. TGFβ phosphorylates Smad2 while BMP phosphorylates Smad1. […] To examine the effect of TGFβ on cardiomyocyte differentiation, hCMPCs were plated at 2×10^4 cells per cm^2 in differentiation medium, treated with 5-aza for 24 hours and cultured for up to 3 weeks in differentiation medium supplemented with TGFβ (1 ng/ml).
To induce differentiation, cells were treated with 5 μM 5′-azacytidine (Sigma) for 72 hours in differentiation medium (Iscove's Modified Dulbecco's Medium/HamsF12 (1:1) (Gibco)) supplemented with L-Glutamine (Gibco), 2% horse serum, non-essential amino acids, Insulin-Transferrin-Selenium supplement, and 10^−4 M Ascorbic Acid (Sigma)). After induction, the medium was changed every 3 days.
For TGFβ treatment, CMPCs were cultured in differentiation medium, stimulated with 5 μM 5′-azacytidine (Sigma) and 1 ng/ml TGFβ1 (Sigma) added 24 hours later. The medium was changed every 3 days.
RNA was isolated using of Trizol (Invitrogen, Breda, The Netherlands) and reverse transcribed using oligo-dT Superscript 3 (Invitrogen). The PCR reactions started with 2 min at 94° C. followed by 35 cycles of: 15 s at 94° C., 30 s at 55° C. and 45 s at 72° C. Products were analyzed on ethidium bromide-stained 1% agarose gel. β-tubulin or β-actin were used as RNA input control.
Coverslips with cultured cells were rinsed in serum free medium, fixed in methanol (−20° C.) or 4% paraformaldehyde, washed with PBS and permeabilized with 0.2% Triton X-100/PBS. Non-specific binding of antibodies was blocked with 2% bovine serum albumin (BSA). Incubation with primary antibodies was performed overnight in PBS/10% normal goat serum (NGS). Antibodies used recognized GATA-4 (Santa Cruz), Islets-1 (Hybridoma Bank), Cx40 (Chemicon), Cx43 (Zymed), Cx45 (kindly provided by Dr. T. H. Steinberg, Washington University, St. Louis, USA), α-actinin (Sigma), Troponin I (Chemicon) desmin (Sanbio), titin (Sigma), MLC2v (Alexis), β-MHC (kindly provided by Dr. A. F. M. Moorman, AMC Amsterdam, Netherlands), N-cadherin (Sigma) and ZO-1 (Zymed). Immunolabeling was performed using Texas Red (TR)- or fluorescein isothiocyanate (FITC)-conjugated secondary antibodies (Jackson Laboratories). All incubation steps were performed at room temperature and in between all incubation steps, cells were washed with PBS. Finally, coverslips were mounted in Vectashield (Vector Laboratories) and examined with a Nikon Optiphot-2 light microscope equipped for epifluorescence.
Western blot analysis was performed as described previously^35. Detection was by ECL (Amersham). […]

Smad2 = experiment: Western blot for TGFβ induced Smad2 phosphorylation in CMPCs; conditions: 1 ng/ml TGFβ, Western blot α-pSmad2
Method: as §1
(§2) FIG. 3: (A) Western blot analysis on protein samples isolated from CMPCs stimulated without or with 1 ng/ml TGFβ or 25 ng/ml BMP-6 and probed with α-pSmad1 or α-pSmad2. Asterisk indicates an non-specific band showing equal loading. B) Semi-quantitative RT-PCR on RNA isolated from CMPCs stimulated without or with 1 ng/ml TGFβ for the indicated days probed for the expression of the early cardiac transcription factors Nkx2.5 and Mef2C, the contractile proteins cardiac actin, cardiac Troponin I, desmin, ANP and MLC2v. β-actin was used as a control for equal RNA input. C) Western blot analysis on protein samples from CMPCs stimulated without or with 1 ng/ml TGF for the indicated days, probed for Nkx2.5 or α-actinin. […] Counterstaining of nuclei was performed using DAPI. Bar=50 μm. […]

CMPC = experiment: In vitro angiogenesis assay: tube formation by CMPC on Matrigel/ECMatrix; conditions: CMPCs on Matrigel, addition of VEGF
From the text: We have also established differentiation of CMPCs of the invention into tubular vascular structures (angiogenesis) on Matrigel, said “tubular vascular structures” which are sometimes also denoted herein as “tubular structures” containing aligned endothelial cells encircled by smooth muscle cells. […] The formation of these newly formed capillary tubes can be visualised for example by staining α-SMA (a smooth muscle actin) on smooth muscle cells and/or PECAM-1 (platelet endothelial cell adhesion molecule-1, CD31) on endothelial cells (see also appended Example 8). Antibodies which can be used in this regard are exemplified in the following: SMA antibody: AB5694 from abcam, clone 1A4, Sigma, cat. Number: A2547, or Dako, cat. Number M08510. Endothelial cells: PECAM-1 clone 9G11 or CD34 clone Qbend/10 form Biogenex or CD31 from Sigma and ve-cadherin from Santa Cruz.
In this case the assay is set up in order to test the influence of diverse compounds (i.e. chemical compounds or miRNA etc.) on tube formation by CMPC (cardio mycocyte progenitor cells). In order for these cells to form tubes these cells have to differentiate into smooth muscle cells and endothelial cells.
The formation of these newly formed capillary tubes is visualised by staining α-SMA (α smooth muscle actin) on smooth muscle cells and PECAM-1 (platelet endothelial cell adhesion molecule-1, CD31) on endothelial cells. […]

Smad1 = experiment: Western blot for BMP induced Smad1 phosphorylation in CMPCs; conditions: 25 ng/ml BMP-6, Western blot α-pSmad1
Method: as §1, §2

Molecule: Nc1ncn([C@@H]2O[C@H](CO)[C@@H](O)[C@H]2O)c(=O)n1 [5-azacytidine, reference compound]
- differentiation of hCMPCs into cardiomyocytes (beating areas) (hCMPCs; hCMPCs 10^5 per cm^2, differentiation medium with ascorbic acid, three weeks after treatment): spontaneously beating areas were observed

Molecule: TGFβ: TGFβ1 (Sigma), 1 ng/ml, added to differentiation medium
- Smad2 phosphorylation (Smad2): TGFβ induced Smad2 phosphorylation
- expression of Nkx2.5 and α-actinin (Western blot) (hCMPCs; CMPCs, 7 days of culture in the presence of TGFβ 1 ng/ml): increased dramatically
- percentage of α-actinin positive cells (hCMPCs; hCMPCs, 5-aza 24 hours, then TGFβ 1 ng/ml, immunofluorescent staining): ~100%
- expression of cardiac genes Troponin-I, ANP, cardiac-actin and desmin (RT-PCR) (hCMPCs; hCMPCs, 5-aza, TGFβ 1 ng/ml, undetectable in its absence): already observed 7 days after the initiation of differentiation
- MLC2v expression (RT-PCR) (hCMPCs; hCMPCs, 5-aza, TGFβ 1 ng/ml, without TGFβ only after 3 weeks): already present after two weeks

Molecule: VEGF
- formation of capillary tubes (CMPC): can be induced

B1: BMP: bone morphogenetic protein; 25 ng/ml BMP-6 in FIG. 3A (protein, UniProt P22004 375-513, looked up)
Bone morphogenetic protein 6: SASSRRRQQSRNRSTQSQDVARVSSASDYNSSELKTACRKHELYVSFQDLGWQDWIIAPKGYAANYCDGECSFPLNAHMNATNHAIVQTLVHLMNPEYVPKPCCAPTKLNAISVLYFDDNSNVILKKYRNMVVRACGCH
- Smad1 phosphorylation (Smad1): clear BMP induced Smad1 phosphorylation

Reference: patent US20100203021A1, “PROVISION OF NEW CARDIOMYOCYTE PROGENITOR CELLS AND CARDIOMYOCYTES DERIVED THEREFROM” (LEAD PHARMA CEL MODELS IP B.V., priority 2007, published 2010)
